Tested on: rats
Assay: Morris Water Maze test of long-term memory in the model of global transient cerebral ischemia with ligation of common carotid arteries
Type: in vivo
Protocol: The comparative study of specific pharmacological activity of the pharmaceutical composition proposed in this invention was conducted by comparison with the citicoline mono-preparation on the model of ischemic stroke in rats. For that purpose, a model of global transient cerebral ischemia with ligation of common carotid arteries was selected on the basis of the Handbook on Conducting Pre-Clinical Studies of Therapeutical Agents, ed. by A.N. Mironov. Long-term memory was evaluated with the use of the Morris Water Maze test (Morris R., "J Neurosci Methods", 1984, Vol. 11, No 1. - P. 47-60 [10]). Table. Effect of the preparations under study on long-term memory in rats in the Morris Water Maze test.

Structure (SMILES)	Latent period of finding platform (mg/kg (citicoline + memantine) 100+0, ischemic stroke model in rats) [s]	Latent period of finding platform (mg/kg (citicoline + memantine) 500+0, ischemic stroke model in rats) [s]	Latent period of finding platform (mg/kg (citicoline + memantine) 1,000+0, ischemic stroke model in rats) [s]	Latent period of finding platform (mg/kg (citicoline + memantine) 0+2, ischemic stroke model in rats) [s]	Latent period of finding platform (mg/kg (citicoline + memantine) 0+10, ischemic stroke model in rats) [s]	Latent period of finding platform (mg/kg (citicoline + memantine) 0+20, ischemic stroke model in rats) [s]
C[N+](C)(C)CCOP(=O)(O)OP(=O)([O-])OC[C@H]1O[C@@H](n2ccc(N)nc2=O)[C@H](O)[C@@H]1O [Citicoline, 5'-O-[hydroxy({hydroxy[2-(trimethylammonio)ethoxy]phosphoryl}oxy)phosphoryl]cytidine]	20.4 ± 7.6	13.6 ± 3.5	10.4 ± 3.5			
CC12CC3CC(C)(C1)CC(N)(C3)C2 [Memantine, 3,5-dimethyladamantan-1-amine]				27.1 ± 7.8	14.6 ± 5.2	9.2 ± 1.2
